{"source": "patent US12077503B2", "about": "“Substituted cyclic amides and their use as herbicides” (FMC CORPORATION, priority 2015, dated 2024)", "type_in_all_cases": "in vivo", "key": {"[1]": {"system": "ducksalad (Heteranthera limosa)", "assay": "Test B flooded paddy test", "settings": "Flood, 250 g ai/ha; 0 to 100 scale where 0 is no effect and 100 is complete control; 13 to 15 d", "outline": "(§1)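 Response scored visually against untreated controls, 0 = no effect and 100 = complete control, 13–15 d after treatment in the greenhouse. Compounds added to paddy water held 3 cm above soil surface. Treatment given at 2-leaf stage.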"}, "[2]": {"system": "barnyardgrass (Echinochloa crus-galli)", "assay": "Test B flooded paddy test", "settings": "Flood, 250 g ai/ha; 0 to 100 scale where 0 is no effect and 100 is complete control; 13 to 15 d", "outline": "as §1"}, "rice (Oryra sativa)": {"system": "rice (Oryra sativa)", "assay": "Test B flooded paddy test", "settings": "Flood, 250 g ai/ha; 0 to 100 scale where 0 is no effect and 100 is complete control; 13 to 15 d", "outline": "as §1"}, "[3]": {"system": "sedge, umbrella (small-flower umbrella sedge, Cyperus difformis)", "assay": "Test B flooded paddy test", "settings": "Flood, 250 g ai/ha; 0 to 100 scale where 0 is no effect and 100 is complete control; 13 to 15 d", "outline": "as §1"}, "[4]": {"system": "giant foxtail (Setaria faberii)", "assay": "Test A preemergence", "outline": "(§2)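 Treatment is preemergence as a directed soil spray after planting, or postemergence at the one- to two-leaf stage, with test chemical in a non-phytotoxic solvent mixture plus surfactant. Plants stay in the greenhouse about 10 d before visual injury scoring on a 0 to 100 scale versus untreated controls.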"}, "[5]": {"system": "ryegrass, Italian (Italian ryegrass, Lolium multiflorum)", "assay": "Test A preemergence", "outline": "as §2"}, "Kochia (Kochia scoparia) [6]": {"system": "Kochia (Kochia scoparia)", "assay": "Test A preemergence", "outline": "as §2"}, "[7]": {"system": "pigweed (Amaranthus retroflexus)", "assay": "Test A preemergence"}, "[8]": {"system": "ragweed (common ragweed, Ambrosia elatior)", "assay": "Test A preemergence", "outline": "as §2"}, "[9]": {"system": "barnyardgrass (Echinochloa crus-galli)", "assay": "Test A preemergence", "outline": "as §2"}, "[10]": {"system": "wheat (Triticum aestivum)", "assay": "Test A postemergence", "settings": "postemergence, 0 to 100 scale (0 no effect, 100 complete control)", "outline": "as §2"}, "corn (Zea mays)": {"system": "corn (Zea mays)", "assay": "Test A postemergence", "settings": "postemergence, 0 to 100 scale (0 no effect, 100 complete control)", "outline": "as §2"}, "[11]": {"system": "giant foxtail (Setaria faberii)", "assay": "Test A postemergence", "settings": "postemergence, 0 to 100 scale (0 no effect, 100 complete control)", "outline": "as §2"}, "[12]": {"system": "ryegrass, Italian (Italian ryegrass, Lolium multiflorum)", "assay": "Test A postemergence", "settings": "postemergence, 0 to 100 scale (0 no effect, 100 complete control)", "outline": "as §2"}, "Kochia (Kochia scoparia) [13]": {"system": "Kochia (Kochia scoparia)", "assay": "Test A postemergence", "settings": "postemergence, 0 to 100 scale (0 no effect, 100 complete control)", "outline": "as §2"}, "[14]": {"system": "pigweed (Amaranthus retroflexus)", "assay": "Test A postemergence", "settings": "postemergence, 0 to 100 scale (0 no effect, 100 complete control)", "outline": "as §2"}, "[15]": {"system": "ragweed (common ragweed, Ambrosia elatior)", "assay": "Test A postemergence", "settings": "postemergence, 0 to 100 scale (0 no effect, 100 complete control)", "outline": "as §2"}, "[16]": {"system": "barnyardgrass (Echinochloa crus-galli)", "assay": "Test A postemergence", "settings": "postemergence, 0 to 100 scale (0 no effect, 100 complete control)", "outline": "as §2"}, "[17]": {"system": "blackgrass (Alopecurus myosuroides)", "assay": "Test A postemergence", "settings": "postemergence, 0 to 100 scale (0 no effect, 100 complete control)", "outline": "as §2"}, "[18]": {"system": "Galium (catchweed bedstraw, Galium aparine)", "assay": "Test A postemergence", "settings": "postemergence, 0 to 100 scale (0 no effect, 100 complete control)", "outline": "as §2"}, "[19]": {"settings": "125 g ai/ha, Preemergence, visual injury after approximately 10 d, 0 to 100 scale where 0 is no effect and 100 is complete control"}, "[20]": {"settings": "500 g ai/ha, preemergence, 0 to 100 scale, 0 = no effect, 100 = complete control"}, "[21]": {"settings": "125 g ai/ha, visual rating after approx. 10 d"}, "[22]": {"settings": "500 g ai/ha, visual injury, approx. 10 d"}}}
{"smiles": "C#Cc1cccc(C2CNC(=O)C2C(=O)Nc2cccc(F)c2F)c1", "note": "(racemic) [Compound 677]", "values": [{"measurement": "Plant response rating, Ducksalad", "setting": "[1]", "value": 100}, {"measurement": "Plant response rating, Barnyardgrass", "setting": "[2]", "value": 30}, {"measurement": "Plant response rating, Rice", "setting": "rice (Oryra sativa)", "value": 0}, {"measurement": "Plant response rating, Sedge, Umbrella", "setting": "[3]", "value": 0}, {"measurement": "Plant response rating, Foxtail, Giant", "setting": "[4]; [19]", "value": 40}, {"measurement": "Plant response rating, Foxtail, Giant", "setting": "[4]; [20]", "value": 90}, {"measurement": "Plant response rating, Ryegrass, Italian", "setting": "[5]; [19]", "value": 20}, {"measurement": "Plant response rating, Ryegrass, Italian", "setting": "[5]; [20]", "value": 40}, {"measurement": "Plant response rating, Kochia", "setting": "Kochia (Kochia scoparia) [6]; [19]", "value": 20}, {"measurement": "Plant response rating, Kochia", "setting": "Kochia (Kochia scoparia) [6]; [20]", "value": 40}, {"measurement": "Plant response rating, Pigweed", "setting": "[7]; [19]", "value": 0}, {"measurement": "Plant response rating, Pigweed", "setting": "[7]; [20]", "value": 0}, {"measurement": "Plant response rating, Ragweed", "setting": "[8]; [19]", "value": 0}, {"measurement": "Plant response rating, Ragweed", "setting": "[8]; [20]", "value": 0}, {"measurement": "Plant response rating, Barnyardgrass", "setting": "[9]; [19]", "value": 60}, {"measurement": "Plant response rating, Barnyardgrass", "setting": "[9]; [20]", "value": 90}, {"measurement": "Plant response rating, Wheat", "setting": "[10]; [21]", "value": 0}, {"measurement": "Plant response rating, Wheat", "setting": "[10]; [22]", "value": 20}, {"measurement": "Plant response rating, Corn", "setting": "corn (Zea mays); [21]", "value": 0}, {"measurement": "Plant response rating, Corn", "setting": "corn (Zea mays); [22]", "value": 40}, {"measurement": "Plant response rating, Foxtail, Giant", "setting": "[11]; [21]", "value": 20}, {"measurement": "Plant response rating, Foxtail, Giant", "setting": "[11]; [22]", "value": 70}, {"measurement": "Plant response rating, Ryegrass, Italian", "setting": "[12]; [21]", "value": 0}, {"measurement": "Plant response rating, Ryegrass, Italian", "setting": "[12]; [22]", "value": 30}, {"measurement": "Plant response rating, Kochia", "setting": "Kochia (Kochia scoparia) [13]; [21]", "value": 0}, {"measurement": "Plant response rating, Kochia", "setting": "Kochia (Kochia scoparia) [13]; [22]", "value": 40}, {"measurement": "Plant response rating, Pigweed", "setting": "[14]; [21]", "value": 0}, {"measurement": "Plant response rating, Pigweed", "setting": "[14]; [22]", "value": 20}, {"measurement": "Plant response rating, Ragweed", "setting": "[15]; [21]", "value": 0}, {"measurement": "Plant response rating, Ragweed", "setting": "[15]; [22]", "value": 30}, {"measurement": "Plant response rating, Barnyardgrass", "setting": "[16]; [21]", "value": 80}, {"measurement": "Plant response rating, Barnyardgrass", "setting": "[16]; [22]", "value": 90}, {"measurement": "Plant response rating, Blackgrass", "setting": "[17]; [21]", "value": 0}, {"measurement": "Plant response rating, Blackgrass", "setting": "[17]; [22]", "value": 20}, {"measurement": "Plant response rating, Galium", "setting": "[18]; [21]", "value": 0}, {"measurement": "Plant response rating, Galium", "setting": "[18]; [22]", "value": 40}]}
